Data published in patent US20050245563A1 (Millennium Pharmaceuticals, Inc., priority 2003, published 2005).
Structures can show the parent of a compound that is named as a salt.

What follows are molecules tested against T1, human Chk1 (GST-Chk1) (Homo sapiens, UniProt O14757) (assay: Chk1 FlashPlate kinase assay). Details: 8.7 nM GST-Chk1, 1 uM ATP, 33P incorporation into peptide substrate.
T1 construct: made in house; host or cells: insect cells (baculovirus, Bac-to-Bac)
T1 sequence (O14757 1-476): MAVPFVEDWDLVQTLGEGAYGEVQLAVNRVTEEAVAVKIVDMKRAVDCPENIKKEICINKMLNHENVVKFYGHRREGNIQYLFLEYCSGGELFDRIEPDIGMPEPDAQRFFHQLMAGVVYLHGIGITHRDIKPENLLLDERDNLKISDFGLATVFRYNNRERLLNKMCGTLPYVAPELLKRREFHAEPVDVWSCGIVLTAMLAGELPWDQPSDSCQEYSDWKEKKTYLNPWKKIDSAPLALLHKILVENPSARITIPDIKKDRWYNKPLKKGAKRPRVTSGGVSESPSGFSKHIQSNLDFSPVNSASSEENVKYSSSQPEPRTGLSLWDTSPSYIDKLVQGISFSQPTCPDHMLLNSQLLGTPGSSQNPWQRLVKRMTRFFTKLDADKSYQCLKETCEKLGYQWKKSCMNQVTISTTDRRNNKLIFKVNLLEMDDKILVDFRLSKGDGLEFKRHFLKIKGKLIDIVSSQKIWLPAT
Format: biochemical
Description: Recombinant human Chk1 was expressed as a fusion protein with glutathione S-transferase at the amino-terminus (GST-Chk1) using standard baculovirus vectors and (Bac-to-Bac®) insect cell expression system purchased from GIBCO™ Invitrogen. Recombinant protein expressed in insect cells was purified using glutathione sepharose (Amersham Biotech) using standard procedures described by the manufacturer.
Chk1 FlashPlate® Kinase Assay:
Assays (25 μL) contained 8.7 nM GST-Chk1, 10 mM MES, 0.1 mM ethylene glycol-bis(β-aminoethylether)-N,N,N′,N′-tetracetic acid (EGTA, pH 8.0), 2 mM DTT, 0.05% Tween 20, 3 uM peptide substrate (Biotin-ILSRRPSYRKILND-free acid) (SEQ ID NO: 1), 1 uM ATP, 0.4 uCi ^33P-γ-ATP (NEN), 4% DMSO. Reactions were incubated for 30 minutes at room temperature, terminated with 50 μL of 50 mM EDTA and 90 μL were transferred to streptavidin-coated FlashPlates® (NEN) and incubated for 1 hour at room temperature. Plates were washed with phosphate buffered salaine containing 0.01% Tween-20 and 10 mM sodium pyrophosphate. Plates were dried, sealed with Topseal™ (NEN) and amount of ^33P incorporated into the peptide substate measure using a Packard Topcount® NXT™ scintillation counter with standard settings.

`Cc1n[nH]c2c1c(=O)n(CCCNCc1ccccc1)c1ccccc21` [Example 5, 5-(3-Benzylamino-propyl)-3-methyl-1,5-dihydro-pyrazolo[4,3-c]quinolin-4-one] and `Cc1n[nH]c2c1c(=O)n(CCCOCc1ccccc1)c1ccccc21` [Example 12, 5-(3-Benzyloxy-propyl)-3-methyl-1,5-dihydro-pyrazolo[4,3-c]quinolin-4-one] cannot be ordered by IC50: under 1000 nM for the first, under 1000 nM for the second.

`Cc1n[nH]c2c1c(=O)n(CCCNC(=O)OC(C)(C)C)c1ccccc21` [Example 6, [3-(3-Methyl-4-oxo-1,4-dihydro-pyrazolo[4,3-c]quinolin-5-yl)-propyl]-carbamic acid tert-butyl ester] and `Cc1n[nH]c2c1c(=O)n(CCCNC(=O)OC(C)(C)C)c1ccc(Cl)cc21` [Example 31, [3-(8-Chloro-3-methyl-4-oxo-1,4-dihydro-pyrazolo[4,3-c]quinolin-5-yl)-propyl]-carbamic acid tert-butyl ester] cannot be ordered by IC50: under 1000 nM for the first, under 1000 nM for the second.

Compared with `Cc1n[nH]c2c1c(=O)n(CCN(C)C)c1ccccc21` [Example 7, 5-(2-Dimethylamino-ethyl)-3-methyl-1,5-dihydro-pyrazolo[4,3-c]quinolin-4-one hydrochloride], `Cc1n[nH]c2c1c(=O)n(CCO)c1ccccc21` [Example 10, 5-(2-Hydroxy-ethyl)-3-methyl-1,5-dihydro-pyrazolo[4,3-c]quinolin-4-one] is lower in IC50: 1000 to 20000 nM for the first, under 1000 nM for the second.

First: Cc1n[nH]c2c1c(=O)n(CCN1CCOCC1)c1ccccc21 [Example 8, 3-Methyl-5-(2-morpholin-4-yl-ethyl)-1,5-dihydro-pyrazolo[4,3-c]quinolin-4-one]
Second: Cc1n[nH]c2c1c(=O)n(CCN)c1ccccc21 [Example 11, 5-(2-Amino-ethyl)-3-methyl-1,5-dihydro-pyrazolo[4,3-c]quinolin-4-one]
The IC50 of the first is higher: 1000 to 20000 nM for the first, under 1000 nM for the second.

`Cc1n[nH]c2c1c(=O)n(CCCN1CCc3ccccc3C1)c1ccccc21` [Example 9, 5-[3-(3,4-Dihydro-1H-isoquinolin-2-yl)-propyl]-3-methyl-1,5-dihydro-pyrazolo[4,3-c]quinolin-4-one] and `Cc1n[nH]c2c1c(=O)n(CCCNC(=O)OCc1ccccc1)c1ccccc21` [Example 13, [3-(3-Methyl-4-oxo-1,4-dihydro-pyrazolo[4,3-c]quinolin-5-yl)-propyl]-carbamic acid benzyl ester] cannot be ordered by IC50: under 1000 nM for the first, under 1000 nM for the second.

`Cc1n[nH]c2c1c(=O)n(CCCO)c1ccccc21` [Example 14, 5-(3-Hydroxy-propyl)-3-methyl-1,5-dihydro-pyrazolo[4,3-c]quinolin-4-one] and `Cc1n[nH]c2c1c(=O)n(CCCN)c1ccccc21` [Example 15, 5-(3-Amino-propyl)-3-methyl-1,5-dihydro-pyrazolo[4,3-c]quinolin-4-one] cannot be ordered by IC50: under 1000 nM for the first, under 1000 nM for the second.

`Cc1[nH]nc2c1c(=O)n(CCCN(C)C)c1ccc(Cl)cc21` [Example 16, 8-Chloro-5-(3-dimethylamino-propyl)-3-methyl-2,5-dihydro-pyrazolo[4,3-c]quinolin-4-one] and `Cc1[nH]nc2c1c(=O)n(CCCN(C)C)c1ccc(Br)cc21` [Example 18, 8-Bromo-5-(3-dimethylamino-propyl)-3-methyl-2,5-dihydro-pyrazolo[4,3-c]quinolin-4-one] cannot be ordered by IC50: under 1000 nM for the first, under 1000 nM for the second.

`COC(=O)CCCn1c(=O)c2c(C)n[nH]c2c2cc(Br)ccc21` [Example 17, 4-(8-Bromo-3-methyl-4-oxo-1,4-dihydro-pyrazolo[4,3-c]quinolin-5-yl)-butyric acid methyl ester] and `Cc1n[nH]c2c1c(=O)n(CCCC(=O)O)c1ccc(Br)cc21` [Example 19, 4-(8-Bromo-3-methyl-4-oxo-1,4-dihydro-pyrazolo[4,3-c]quinolin-5-yl)-butyric acid] cannot be ordered by IC50: under 1000 nM for the first, under 1000 nM for the second.

`Cc1[nH]nc2c1c(=O)n(CCCC#N)c1ccc(Br)cc21` [Example 20, 4-(8-Bromo-3-methyl-4-oxo-2,4-dihydro-pyrazolo[4,3-c]quinolin-5-yl)-butyronitrile] and `Cc1[nH]nc2c1c(=O)n(CCCN)c1ccc(Cl)cc21` [Example 32, 5-(3-Amino-propyl)-8-chloro-3-methyl-1,5-dihydro-pyrazolo[4,3-c]quinolin-4-one] cannot be ordered by IC50: under 1000 nM for the first, under 1000 nM for the second.

Compared with `Cc1n[nH]c2c1c(=O)n(CCCC(=O)N1CCN(C(=O)OC(C)(C)C)CC1)c1ccc(Br)cc21` [Example 21, 4-[4-(8-Bromo-3-methyl-4-oxo-1,4-dihydro-pyrazolo[4,3-c]quinolin-5-yl)-butyryl]-piperazine-1-carboxylic acid tert-butyl ester], `Cc1n[nH]c2c1c(=O)n(CC1CCN(C(=O)OC(C)(C)C)CC1)c1ccc(Br)cc21` [Example 37, 4-(8-Bromo-3-methyl-4-oxo-1,4-dihydro-pyrazolo[4,3-c]quinolin-5-ylmethyl)-piperidine-1-carboxylic acid tert-butyl ester] is higher in IC50: under 1000 nM for the first, 1000 to 20000 nM for the second.

`Cc1n[nH]c2c1c(=O)n(CCCC(=O)NCc1ccc(Cl)cc1)c1ccc(Br)cc21` [Example 22, 4-(8-Bromo-3-methyl-4-oxo-1,4-dihydro-pyrazolo[4,3-c]quinolin-5-yl)-N-(4-chloro-benzyl)-butyramide] and `Cc1n[nH]c2c1c(=O)n(CCCNC(=O)c1ccc(Cl)cc1)c1ccc(Cl)cc21` [Example 40, 4-Chloro-N-[3-(8-chloro-3-methyl-4-oxo-1,4-dihydro-pyrazolo[4,3-c]quinolin-5-yl)-propyl]-benzamide] cannot be ordered by IC50: under 1000 nM for the first, under 1000 nM for the second.

Going from `Cc1n[nH]c2c1c(=O)n(CC(N)Cc1ccccc1)c1ccccc21` (stereo not shown) [Example 23, 5-(2-Amino-3-phenyl-propyl)-3-methyl-1,5-dihydro-pyrazolo[4,3-c]quinolin-4-one] to `Cc1n[nH]c2c1c(=O)n(CCCNC(=O)OCc1ccccc1)c1ccc(Br)cc21` [Example 43, [3-(8-Bromo-3-methyl-4-oxo-1,4-dihydro-pyrazolo[4,3-c]quinolin-5-yl)-propyl]-carbamic acid benzyl ester], the IC50 falls from over 20000 nM to under 1000 nM. The second is the more potent here.

First: Cc1[nH]nc2c1c(=O)[nH]c1c(OCCCNC(=O)OC(C)(C)C)cccc12 [Example 24, [3-(3-Methyl-4-oxo-4,5-dihydro-2H-pyrazolo[4,3-c]quinolin-6-yloxy)-propyl]-carbamic acid tert-butyl ester]
Second: Cc1[nH]nc2c1c(=O)[nH]c1c(OCCCN)cccc12 [Example 25, 6-(3-Amino-propoxy)-3-methyl-2,5-dihydro-pyrazolo[4,3-c]quinolin-4-one]
The IC50 of the first is higher: over 20000 nM for the first, 1000 to 20000 nM for the second. The second is the more potent here.

`Cc1n[nH]c2c1c(=O)n(CCCCNC(=O)OC(C)(C)C)c1ccc(Br)cc21` [Example 29, [4-(8-Bromo-3-methyl-4-oxo-1,4-dihydro-pyrazolo[4,3-c]quinolin-5-yl)-butyl]-carbamic acid tert-butyl ester] and `Cc1n[nH]c2c1c(=O)n(CC(C)CNC(=O)OC(C)(C)C)c1ccc(Br)cc21` (stereo not shown) [Example 41, [3-(8-Bromo-3-methyl-4-oxo-1,4-dihydro-pyrazolo[4,3-c]quinolin-5-yl)-2-methyl-propyl]-carbamic acid tert-butyl ester] cannot be ordered by IC50: under 1000 nM for the first, under 1000 nM for the second.

First: Cc1n[nH]c2c1c(=O)n(CC1CCCN(C(=O)OC(C)(C)C)C1)c1ccc(Br)cc21 (stereo not shown) [Example 30, 3-(8-Bromo-3-methyl-4-oxo-1,4-dihydro-pyrazolo[4,3-c]quinolin-5-ylmethyl)-piperidine-1-carboxylic acid tert-butyl ester]
Second: Cc1n[nH]c2c1c(=O)n(CC1CCNCC1)c1ccc(Br)cc21 [Example 39, 8-Bromo-3-methyl-5-piperidin-4-ylmethyl-1,5-dihydro-pyrazolo[4,3-c]quinolin-4-one]
The IC50 of the first is higher: 1000 to 20000 nM for the first, under 1000 nM for the second. The second is the more potent here.

`Cc1n[nH]c2c1c(=O)n(CCCCN)c1ccc(Br)cc21` [Example 34, 5-(4-Amino-butyl)-8-bromo-3-methyl-1,5-dihydro-pyrazolo[4,3-c]quinolin-4-one] and `Cc1n[nH]c2c1c(=O)n(CC(C)CN)c1ccc(Br)cc21` (stereo not shown) [Example 42, 5-(3-Amino-2-methyl-propyl)-8-bromo-3-methyl-1,5-dihydro-pyrazolo[4,3-c]quinolin-4-one] cannot be ordered by IC50: under 1000 nM for the first, under 1000 nM for the second.

`Cc1[nH]nc2c1c(=O)n(CCCNC(=O)CC(C)C)c1ccccc21` [Example 35, 3-Methyl-N-[3-(3-methyl-4-oxo-2,4-dihydro-pyrazolo[4,3-c]quinolin-5-yl)-propyl]-butyramide] and `Cc1n[nH]c2c1c(=O)n(CCCCNC(=O)c1ccccc1)c1ccc(Br)cc21` [Example 36, N-[4-(8-Bromo-3-methyl-4-oxo-1,4-dihydro-pyrazolo[4,3-c]quinolin-5-yl)-butyl]-benzamide] cannot be ordered by IC50: under 1000 nM for the first, under 1000 nM for the second.
